The source of these data is patent US9884841B2, “Small molecule inhibitors of Mcl-1 and uses thereof” (The Regents of the University of Michigan, priority 2015, dated 2018).

Entries after “also recorded” stand apart in the source; their conditions may differ.

One series has as its system Panc-1 cells. Kind of series: Cell growth inhibition of Panc-1 by MTT assay, ABT-263 with 483. It counts as cell-based. The source says: FIG. 7: 483 synergizes with ABT-263 to kill Panc-1 cells.
As expected, ABT-263 had little effect on this cell line (FIG. 7).
A general note: Formazan colour is commonly taken as a measure of viable cells.

Another series relates to Mcl-1 knockout MEFs. It counts as cell-based. The conditions noted are these: 15 h. The procedure:
Cell viability was assessed using propidium iodide staining detected with flow cytometry. […] The percentage of dead cells was calculated using LIVE/DEAD fixable violet dead cell stain (VIVID) and detected with flow cytometry.

The target of series [1] is T1, Mcl-1 (Homo sapiens, UniProt Q07820). The settings on record: cited from earlier work.
Target sequence in this assay (Q07820 whole entry, species assumed): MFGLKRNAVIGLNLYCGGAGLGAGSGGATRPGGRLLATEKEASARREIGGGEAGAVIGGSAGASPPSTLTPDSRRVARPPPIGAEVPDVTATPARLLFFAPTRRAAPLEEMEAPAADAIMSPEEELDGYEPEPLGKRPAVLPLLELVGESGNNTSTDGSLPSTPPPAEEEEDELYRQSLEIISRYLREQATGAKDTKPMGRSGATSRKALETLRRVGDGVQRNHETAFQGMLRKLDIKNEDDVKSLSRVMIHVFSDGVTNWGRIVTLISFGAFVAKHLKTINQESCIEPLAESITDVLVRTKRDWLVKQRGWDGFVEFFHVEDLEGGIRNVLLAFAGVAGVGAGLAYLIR
Series [2] deals with T1, Mcl-1. Kind of series: HSQC NMR spectroscopy of binding to Mcl-1 protein. The settings on record: compound in complex with Mcl-1. The source says: [drawing 85] with 5,6-difuran-2-yl-1,2,4-triazine core identified with high throughput screening (see, e.g., Du, Y., et al., Assay and drug development technologies 9, 382-393). […] The second furan ring has weak hydrophobic interaction with residues Phe 318 and Phe 319, which are located proximal to the conserved h4 pocket (FIG. 1). These two residues were identified that contribute to additional hydrophobic contacts with the staple of a reported stabilized α-helix (see, e.g., Stewart, M. L., et al., Nat Chem Biol 6, 595-601).
[drawing 86] was de-novo designed (FIG. 1). In the 368, one furan ring was replaced with carboxylate moiety in order to improve the conserved hydrogen bond, the other furan ring was replaced with phenylsulfonamido and the side chain was changed to phenethylthio substituent in order to allow further modification for improving hydrophobic interactions.
Target sequence in this assay (Q07820 whole entry): as the sequence (Q07820 whole entry, species assumed) above

Series [3] addresses T1, Mcl-1. Kind of series: FP based binding assay to Mcl-1 (Bid BH3 peptide probe).
Target sequence in this assay (Q07820 whole entry): as the sequence (Q07820 whole entry, species assumed) above
Series [4] concerns Eμ-myc lymphoma cells overexpressing Mcl-1. Kind of series: Cell death in Eμ-myc lymphoma cells overexpressing Mcl-1. It counts as cell-based, mouse. The settings on record: Eμ-myc lymphoma overexpressing Mcl-1, 15 h, VIVID stain, flow cytometry. The procedure: (§1) FIG. 5A-B: A) 483 induces Bax/Bak and Mcl-1 dependent cell death. Mouse Embryonic Fibroblasts (MEFs) were treated for 15 h with 483 and ABT263. Cell viability was assessed using propidium iodide staining detected with flow cytometry. […] Cells were treated for 15 h with increasing concentrations of (A) 483 and (B) ABT263. […] The percentage of dead cells was calculated using LIVE/DEAD fixable violet dead cell stain (VIVID) and detected with flow cytometry. (*) is p<0.001.
(§2) Wild-type, Bax/Bak double knockout and Mcl-1 knockout MEFs cells have been employed as models to establish the mechanism-based apoptosis and on-target activity (see, e.g., Lindsten, T., and Thompson, C. B. (2006) Cell death and differentiation 13, 1272-1276). […] The specificity of this class Mcl-1 inhibitors was further confirmed by using cell lines developed by retroviral transduction of lymphoma cells isolated from Eg-myc transgenic mice which survival depends on the expression of individual prosurvival protein.

The test system of series [5] is Bax/Bak double knockout MEFs. Kind of series: Cell viability in Bax/Bak double knockout MEFs. It counts as cell-based. The settings on record: 15 h. Here is the method:
as §1, §2

For series [6], the target named is T2, Bcl-xL (Homo sapiens, UniProt Q07817). Kind of series: Cell-free functional assay with purified mitochondria, Smac release, Bcl-xL. The series is classed as biochemical. The conditions noted are these: concentrations as high as 9 μM. The source says:
To provide direct evidence that 483 and 487 also selectively antagonize Mcl-1 function, a cell-free functional assay was established using purified mitochondria, recombinant Mcl-1 and Bcl-xL proteins, and the BIM BH3 peptide which binds to both proteins with high affinities.

The target in another series is T3, endogenous Mcl-1 protein (Homo sapiens, UniProt Q07820).
T3 construct: endogenous in cells; host or cells: 2LMP human breast cancer cells (whole cell lysate)
Kind of series: Pull-down assay using biotin-labeled Noxa and 2LMP whole cell lysate. The series is classed as binding. The settings on record: Western blot with anti-Mcl-1 antibody. The procedure:
FIG. 3: Mcl-1 inhibitors recognize and bind endogenous Mcl-1 protein. Biotin-labeled Noxa (BL-Noxa, […]) was incubated with whole cell lysates of 2LMP cells with or without tested Mcl-1 inhibitors and Bim BH3 peptide as a positive control, followed by incubation with precleared streptavidin agarose beads. Eluted beads were subjected to Western blot analysis with anti-Mcl-1 antibody.
On the technique in general: Immunoblotting shows a protein as a band on a membrane.

Series [7] addresses T2, Bcl-xL. Kind of series: Binding selectivity, Bcl-xL.
The subject of series [8] is Eμ-myc lymphoma cells overexpressing Bcl-2. Kind of series: Cell death in Eμ-myc lymphoma cells overexpressing Bcl-2. The series is classed as cell-based, mouse. The settings on record: Eμ-myc lymphoma overexpressing Bcl-2, 15 h. The procedure: as §1, §2
The next series addresses T4, Bcl-w (Homo sapiens, UniProt Q92843).
T4 sequence (Q92843 1-193): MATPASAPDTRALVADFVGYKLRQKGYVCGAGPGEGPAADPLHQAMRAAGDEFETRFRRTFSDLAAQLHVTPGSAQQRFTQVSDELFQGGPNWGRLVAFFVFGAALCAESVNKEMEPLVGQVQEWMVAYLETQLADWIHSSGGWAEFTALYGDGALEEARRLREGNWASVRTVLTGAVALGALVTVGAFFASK
Kind of series: Binding selectivity, Bcl-w.

For the next series, the system named is wild-type MEFs. Kind of series: Cell viability in wild-type MEFs. It counts as cell-based, mouse. The settings on record: 15 h, propidium iodide staining, flow cytometry. The procedure: as §1, §2
Series [9] concerns the target T5, Mcl-1/BAK protein-protein interactions (Homo sapiens, UniProt Q07820).
T5 construct: endogenous in cells; host or cells: Panc-1 cells
Kind of series: Co-immunoprecipitation of Mcl-1 protein in Panc-1 cells. The series is classed as cell-based. The conditions noted are these: different concentrations, Mcl-1 immunoprecipitation and Western blot. The source says: FIG. 8: 483LM disrupts the Mcl-1/BAK protein-protein interactions in Panc-1 cell line.

A further series deals with Bcl-2 (Homo sapiens, UniProt P10415). Kind of series: Binding selectivity, Bcl-2.
[10] abbreviates: FP assay using Bid BH3 peptide as a probe.
The mark [11] stands for this setting: Binding affinity of Mcl-1 inhibitors using FP based assay, Table 1.

T2 sequence (Q07817 whole entry, species assumed): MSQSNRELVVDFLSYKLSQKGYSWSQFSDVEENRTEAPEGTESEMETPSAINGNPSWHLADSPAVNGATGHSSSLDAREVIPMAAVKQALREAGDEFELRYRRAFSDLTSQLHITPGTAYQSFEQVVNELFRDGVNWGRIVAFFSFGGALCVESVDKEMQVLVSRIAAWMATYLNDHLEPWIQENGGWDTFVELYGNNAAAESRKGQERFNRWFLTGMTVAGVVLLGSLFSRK
T5 sequence (Q07820 whole entry): as the sequence (Q07820 whole entry, species assumed) above
Bcl-2, sequence (P10415 whole entry, species assumed): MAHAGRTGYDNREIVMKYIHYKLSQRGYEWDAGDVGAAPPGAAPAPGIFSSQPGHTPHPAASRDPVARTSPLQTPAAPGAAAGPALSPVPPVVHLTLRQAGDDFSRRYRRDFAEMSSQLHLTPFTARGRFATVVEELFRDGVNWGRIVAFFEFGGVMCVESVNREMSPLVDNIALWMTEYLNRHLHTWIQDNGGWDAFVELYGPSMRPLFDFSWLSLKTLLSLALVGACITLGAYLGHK
T3 sequence (Q07820 whole entry): as the sequence (Q07820 whole entry, species assumed) above

As for `CC1(C)CCC(c2ccc(Cl)cc2)=C(CN2CCN(c3ccc(C(=O)NS(=O)(=O)c4ccc(N[C@H](CCN5CCOCC5)CSc5ccccc5)c(S(=O)(=O)C(F)(F)F)c4)cc3)CC2)C1` [ABT-263, reference compound], the “effect on cell line, single agent” value in the series on Panc-1 cells (Panc-1, 48 h) is on record as “little effect”. For the same compound, in the series on Mcl-1 knockout MEFs, the “cytotoxicity / growth-inhibitory activity” value is listed as “increased growth-inhibitory activity”.

On to `CN(C)CC[C@H](CSc1ccccc1)Nc1ccc(S(=O)(=O)NC(=O)c2ccc(N3CCN(Cc4ccccc4-c4ccc(Cl)cc4)CC3)cc2)cc1[N+](=O)[O-]` [ABT-737], for which, on Mcl-1 [1], the “binding to Mcl-1” value is listed as “fails to bind”.

For the compound `O=C(O)c1cc(SCCc2ccccc2)ccc1NS(=O)(=O)c1ccccc1` [Compound 368, 5-(Phenethylthio)-2-(phenylsulfonamido)benzoic acid], the “chemical shift perturbations in HSQC NMR spectrum” value at Mcl-1 [2] is recorded as “large chemical shift perturbations”. On Mcl-1 [3] (setting [10]), affinity was put at a Ki of 490 ± 10 nM.

Consider `CC(C)c1cc(NC(=O)c2ccc(Oc3ccccc3)cc2)c(C(=O)O)cc1-c1ccc(COc2cccc(C(F)(F)F)c2)cc1` [Compound 483, 6-isopropyl-4-(4-phenoxybenzamido)-4′-((3-(trifluoromethyl)phenoxy)methyl)-[1,1′-biphenyl]-3-carboxylic acid], for which the “cell death / sensitization” value in [4] was “led to sensitization; also recorded: selectively induces cell death”. For the same compound, the cytotoxicity entry in series [5] is “didn't show cytotoxicity”. Moreover, on Bcl-xL [6], the “release of Smac in the Bcl-xL functional assay” value is listed as “fail to release Smac”. Moreover, at endogenous Mcl-1 protein, the “blocking of the binding of BL-Noxa to Mcl-1” value is on record as “dose-dependent blocked”. Further, the inhibitory constant (Ki) (in general, the dissociation constant of the complex between target and ligand, obtained from inhibition or displacement) at Bcl-xL [7] was over 1000 nM; at Bcl-w, over 1000 nM; at Bcl-2, over 1000 nM; on Mcl-1 [3] (binding affinity to Mcl-1), 7 ± 2 nM. For the same compound, the effect on cells entry in series [8] was “did not show effect”. In addition, the cell death entry in the series on wild-type MEFs was “causes cell death”. Besides, the results for the “disruption of Mcl-1/Bak protein-protein interactions” value in series [9] and in series [9] (listed as 483LM) were “dose-dependent disruption” and “disrupts”, respectively. The “combination effect with ABT-263” value in the series on Panc-1 cells (Panc-1, 48 h) was “synergizes; also recorded: substantially shifted the dose-response curve”. In addition, the “improvement of IC50 of cell growth inhibition of ABT-263” value in the series on Panc-1 cells (Panc-1, ABT-263 in the presence of 483, 48 h) is “more than 660 fold”. The “cytotoxicity / growth-inhibitory activity” value with Mcl-1 knockout MEFs was “didn't show cytotoxicity”.

For the compound `CC(C)c1cc(NC(=O)c2ccc(Oc3ccc(F)cc3)cc2)c(C(=O)O)cc1-c1ccc(COc2cccc(C(F)(F)F)c2)cc1` [Compound 487, 4-(4-(4-fluorophenoxy)benzamido)-6-isopropyl-4′-((3-(trifluoromethyl)phenoxy)methyl)-[1,1′-biphenyl]-3-carboxylic acid], the “release of Smac in the Bcl-xL functional assay” value on Bcl-xL [6] was “fail to release Smac”. At Mcl-1 [3] (setting [11]), the affinity corresponds to a Ki of 8 ± 2 nM.

At Mcl-1 [3] (setting [11]), `O=C(O)c1ccc(SCCc2ccccc2)cc1NS(=O)(=O)c1ccccc1` [Compound 702, 4-(Phenethylthio)-2-(phenylsulfonamido)benzoic acid] yielded a Ki of 2360 ± 116 nM.

For the compound `O=C(CSc1nnc(-c2ccco2)c(-c2ccco2)n1)Nc1ccccc1` [Compound E238, reference compound], the “chemical shift perturbations in HSQC NMR spectrum” value at Mcl-1 [2] was “concentration-dependent perturbations”. The compound further returned a Ki at Mcl-1 [3] (setting [10]) of 2090 ± 180 nM.
